The subject of one data set is HCC1937 xenograft. The data set can be described thus: PET imaging and ex vivo biodistribution in xenograft-bearing mice. The procedure:
All animal experiments were performed according to the German animal welfare act and approved by the local authorities (Regierungsprasidium Tübingen, R3/18). Animals were housed in individually ventilated cages (IVCs, 5 mice per cage) with bedding and enrichment, and food and water was provided ad libitum. Animals were kept under isoflurane anesthetic (1.5 % in pure oxygen, 1.5 l/min) during the experiments. 1×10^7 cells in 1:1 ice-cold Matrigel (Thermo Scientific) / PBS were injected subcutaneously in the right shoulder area of 7 week-old female NOD.CB17-Prkdc^scid/J mice (n = 5). […] The mice underwent a second, 10 min static PET scan 2 h post-injection (p.i.). Mice were sacrificed by cervical dislocation, the collected organs were weighed and the tissue uptake was determined by gamma-counting (WIZARD2, PerkinElmer). PET image reconstruction and correlation with MR images was performed with Inveon Acquisition Workplace and Inveon Research Workplace, respectively, using a user-defined dynamic framing and an ordered subset expectation maximization (OSEM3D) algorithm. Regions of interest (ROIs) were drawn according to the acquired MR images and co-registered with the PET data to obtain time-activity curves (TACs).
Statistical analyses were performed with GraphPad Prism 9 using non-parametric t-tests and are represented as mean value ± standard deviation. Blood half-life was calculated using a two-phase decay fit. P-values < 0.05 were considered statistically significant according to the software (*: p < 0.05, **: p < 0.01, ***: p < 0.001, ****: p < 0.0001).

The nature of data set [1]: Serum stability analysis in human serum. Format: in vitro ADME. The following applies: over a time course of 240 minutes; Fig 7 B.
The test system of data set [2] is HCC1937 cells. Description: In vitro radiotracer uptake. Format: cell-based, Human. Here is the method: Human breast carcinoma cells (HCC1937, ACC513) were purchased from the German Collection of Microorganisms and Cell Cultures (DSMZ GmbH, Braunschweig, Germany) and cultured in Roswell Park Memorial Institute (RPMI) 1640 medium supplemented with 16 % fetal calf serum (FCS), 100 U/ml penicillin and 100 µg/ml streptomycin at 37°C under humid 5 % CO2 atmosphere. Absence of mycoplasma infection was confirmed by PCR analysis in monthly intervals.
After 30 min of incubation at 37°C, the cells were washed by vacuum filtration of medium through the plate (2×100 µl followed by 2×200 µl), the filters were transferred into tubes using a commercial punch kit (MAMP09608, Merck) and measured in a gamma counter (Wizard 2, Perkin-Elmer, Waltham, MA, USA). Experiments were performed in triplicates and the uptake was quantified as percent of added activity.

The nature of data set [3]: Serum stability analysis in mouse serum. The following applies: over a time course of 240 minutes; Fig 7 B. Format: in vitro ADME.
Data set [4] has as its system HCC1937 cells. The data set can be described thus: Competition assay of radiotracer uptake. Format: cell-based, Human. The following applies: 1:2 serial dilution starting at 1µM; Fig. 11. The procedure:
Human breast carcinoma cells (HCC1937, ACC513) were purchased from the German Collection of Microorganisms and Cell Cultures (DSMZ GmbH, Braunschweig, Germany) and cultured in Roswell Park Memorial Institute (RPMI) 1640 medium supplemented with 16 % fetal calf serum (FCS), 100 U/ml penicillin and 100 µg/ml streptomycin at 37°C under humid 5 % CO2 atmosphere. Absence of mycoplasma infection was confirmed by PCR analysis in monthly intervals. […] After 30 min of incubation at 37°C, the cells were washed by vacuum filtration of medium through the plate (2×100 µl followed by 2×200 µl), the filters were transferred into tubes using a commercial punch kit (MAMP09608, Merck) and measured in a gamma counter (Wizard 2, Perkin-Elmer, Waltham, MA, USA). Experiments were performed in triplicates and the uptake was quantified as percent of added activity.

The values that follow come from patent EP4088745A1, “COMPOUND FOR THE DIAGNOSIS OF CANCER” (Eberhard Karls Universität Tübingen Medizinische Fakultät, priority 2021, dated 2022).

SMILES strings stand for the structures.

Turning to `Cn1ncnc1[C@H]1c2n[nH]c(=O)c3cc(F)cc(c23)N[C@@H]1c1ccc([18F])cc1` [[^18F] talazoparib, (8S,9R)-5-Fluoro-8-(4-^18fluorophenyl)-2,7,8,9-tetrahydro-9-(1-methyl-1H-1,2,4-triazol-5-yl)-3H-pyrido[4,3,2-de]phthalazin-3-one], the absolute xenograft uptake with HCC1937 xenograft (biodistribution analysis 2.5 h p.i., n = 5) came out at 3.7 ± 0.71 %ID/g. Moreover, the calculated blood half-life in the data set with HCC1937 xenograft (blood TAC, two-phase decay fit) is 3.3 min. Also, in the data set with HCC1937 xenograft (mouse, in vivo), the “uptake in the brain tissue” value is “very low uptake”. In data set [1], the “Stability in human serum” value is given as “no radiometabolite was detected”. Further, the “uptake in HCC1937 cells” value with HCC1937 cells [2] (30 min incubation at 37°C, Fig. 7A) is recorded as “high uptake”. Further, the “uptake blocked by excess olaparib and talazoparib” value in the data set on HCC1937 cells [2] (blocking with olaparib or talazoparib, final concentration 25 µM) is on record as “blockable to baseline”. Moreover, the “Stability in mouse serum” value in data set [3] is recorded as “no radiometabolite was detected”.

As for `Cn1ncnc1[C@H]1c2n[nH]c(=O)c3cc(F)cc(c23)N[C@@H]1c1ccc(F)cc1` [talazoparib, (8S,9R)-5-Fluoro-8-(4-fluorophenyl)-2,7,8,9-tetrahydro-9-(1-methyl-1H-1,2,4-triazol-5-yl)-3H-pyrido[4,3,2-de]phthalazin-3-one], the “blocking of the [^18F]talazoparib signal compared to olaparib” value in the data set with HCC1937 cells [4] is on record as “blocked the signal more effective”.
